Data: patent publication US10813982B2, “Composition comprising an oxidoreductase enzyme and its antibacterial use” (SYSTAGENIX WOUND MANAGEMENT, LIMITED, priority 2015, dated 2020)

What was measured:
S. aureus biofilms = test: Biofilm model: 24 hour exposure against 24 hour old single species biofilm, viable count; format: cell-based, Staphylococcus aureus; conditions: 30 μl per disc/biofilm, 37° C., 80 rpm shaking, FIG. 2
Description: (§1) Stationary phase cultures of S. aureus or P. aeruginosa grown in TSB were adjusted to 0.5 McFarland (c. 1.5×10^8 CFU/mL) and diluted a further 1:4 ratio (1 mL inoculum with 3 mL 0.1% Bactopeptone). A viable count was taken of each inoculum preparation. Sterile discs (6 mm diameter×1.0 mm) housed in 24 well culture plates were inoculated with 80 μL of culture. 0.2 ml of a test media was then added, the assay plates were parafilmed and incubated for 24 h at 37 degrees Celsius with 80 rpm shaking to allow biofilm formation. Unused wells were filled with PBS to increase humidity and prevent evaporation. After 24 hours incubation, cellulose discs/biofilms were rinsed with PBS to remove any […] vegetative cells and transferred to 150 μl of fresh media. For the honey (as the source of glucose) and Prontosan®, 30 μl was added to each test disc. […] Assuming the lowest concentration (100,[…]), 3.5 mg (350 U) was added to 3.5 ml of DPBS to give a 100 U/ml working stock which was filter sterilised. […] 30 μl of each was added to a disc/biofilm. The assay plates were parafilmed and incubated for 24 hours at 37° C. with 80 rpm shaking to allow biofilm disruption. Unused wells were filled with PBS to increase humidity and prevent evaporation. […]

P. aeruginosa biofilms = test: as above; format: cell-based, Pseudomonas aeruginosa; conditions: 30 μl per disc/biofilm, 37° C., 80 rpm shaking, FIG. 1
Description: as §1, with “sterilised. For the Pseudomonas experiment, the working stock was diluted in PBS to give a 10 U/ml solution-30 μl was added to a disc/biofilm.” for “sterilised.”

## glucose oxidase [glucose oxidase alone]
S. aureus biofilms
  inhibition of 24 hour old single species biofilms of S. aureus: no inhibition
P. aeruginosa biofilms
  inhibition of 24 hour old single species biofilms of P. aeruginosa: no inhibition
